Assays:
[1] = system: Plasmodium berghei; assay: Increased mean survival time in drug-sensitive Plasmodium berghei infected mice (Mus musculus) at 640 mg/kg; toxic in 4 of 5; type: functional
[2] = system: Plasmodium berghei; assay: Increased mean survival time in drug-sensitive Plasmodium berghei infected mice (Mus musculus) at 40 mg/kg; cured 3 of 5; type: functional, organism-based; set-up: dose 40 mg/kg
[3] = system: Plasmodium berghei; assay: Increased mean survival time in drug-sensitive Plasmodium berghei infected mice (Mus musculus) at 20 mg/kg; cured 1 of 5; type: functional, organism-based; set-up: dose 20 mg/kg
[4] = system: Plasmodium berghei; assay: Increased mean survival time in drug-sensitive Plasmodium berghei infected mice (Mus musculus) at 160 mg/kg; cured 5 of 5; type: functional, organism-based; set-up: dose 160 mg/kg
[5] = system: Plasmodium berghei; assay: Increased mean survival time in drug-sensitive Plasmodium berghei infected mice (Mus musculus) at 320 mg/kg dose; type: functional
[6] = system: Plasmodium berghei; assay: Increased mean survival time in drug-sensitive Plasmodium berghei infected mice (Mus musculus) at 80 mg/kg; cured 3 of 5; type: functional, organism-based; set-up: dose 80 mg/kg
[7] = system: Plasmodium berghei; assay: Increased mean survival time in drug-sensitive Plasmodium berghei infected mice (Mus musculus) at 40 mg/kg dose; type: functional
[8] = system: Plasmodium berghei; assay: Antimalarial activity against Plasmodium berghei infected mice (Mus musculus) at 160 mg/kg; toxic in 5 of 5; type: functional, organism-based; set-up: dose 160 mg/kg
[9] = system: Plasmodium berghei; assay: Antimalarial activity against Plasmodium berghei infected mice (Mus musculus) at 640 mg/kg; toxic in 5 of 5; type: functional, organism-based; set-up: dose 640 mg/kg
[10] = system: Plasmodium berghei; assay: Antimalarial activity against Plasmodium berghei infected mice (Mus musculus) at 160 mg/kg; toxic in 3 of 5; type: functional, organism-based; set-up: dose 160 mg/kg
[11] = system: Plasmodium berghei; assay: Antimalarial activity against Plasmodium berghei infected mice (Mus musculus) at 160 mg/kg; cured 1 of 5; type: functional, organism-based; set-up: dose 160 mg/kg
[12] = system: Plasmodium berghei; assay: Increased mean survival time in drug-sensitive Plasmodium berghei infected mice (Mus musculus) at 20 mg/kg dose; type: functional
[13] = system: Plasmodium berghei; assay: Increased mean survival time in drug-sensitive Plasmodium berghei infected mice (Mus musculus) at 40 mg/kg; active; type: functional
[14] = system: Plasmodium berghei; assay: Antimalarial activity against Plasmodium berghei in mice (Mus musculus) at 40 mg/kg; toxic in 3 of 5; type: functional, organism-based; set-up: dose 40 mg/kg
[15] = system: Plasmodium berghei; assay: Antimalarial activity against Plasmodium berghei infected mice (Mus musculus) at 320 mg/kg; toxic in 5 of 5; type: functional, organism-based; set-up: dose 320 mg/kg
[16] = system: Plasmodium berghei; assay: Increased mean survival time in drug-sensitive Plasmodium berghei infected mice (Mus musculus) at 160 mg/kg; toxic in 5 of 5; type: functional, organism-based; set-up: dose 160 mg/kg
[17] = system: Plasmodium berghei; assay: Increased mean survival time in drug-sensitive Plasmodium berghei infected mice (Mus musculus) at 640 mg/kg; toxic in 5 of 5; type: functional, organism-based; set-up: dose 640 mg/kg
[18] = system: Plasmodium berghei; assay: Antimalarial activity against Plasmodium berghei infected mice (Mus musculus) at 80 mg/kg; toxic in 1 of 5; type: functional, organism-based; set-up: dose 80 mg/kg
[19] = system: Plasmodium berghei; assay: Antimalarial activity against Plasmodium berghei infected mice (Mus musculus) at 320 mg/kg; toxic in 3 of 5; type: functional, organism-based; set-up: dose 320 mg/kg
[20] = system: Plasmodium berghei; assay: Increased mean survival time in drug-sensitive Plasmodium berghei infected mice (Mus musculus) at 80 mg/kg; active; type: functional
[21] = system: Plasmodium berghei; assay: Antimalarial activity against Plasmodium berghei infected mice (Mus musculus) at 160 mg/kg; toxic in 1 of 5; type: functional, organism-based; set-up: dose 160 mg/kg
[22] = system: Plasmodium berghei; assay: Increased mean survival time in drug-sensitive Plasmodium berghei infected mice (Mus musculus) at 160 mg/kg; cured 3 of 5; type: functional, organism-based; set-up: dose 160 mg/kg
[23] = system: Plasmodium berghei; assay: Antimalarial activity against Plasmodium berghei infected mice (Mus musculus) at 20 mg/kg; toxic in 1 of 5; type: functional, organism-based; set-up: dose 20 mg/kg
[24] = system: Plasmodium berghei; assay: Antimalarial activity against Plasmodium berghei infected mice (Mus musculus) at 320 mg/kg; toxic in 2 of 5; type: functional, organism-based; set-up: dose 320 mg/kg
[25] = system: Plasmodium berghei; assay: Increased mean survival time in drug-sensitive Plasmodium berghei infected mice (Mus musculus) at 640 mg/kg; cured 2 of 5; type: functional, organism-based; set-up: dose 640 mg/kg
[26] = system: Plasmodium berghei; assay: Increased mean survival time in drug-sensitive Plasmodium berghei infected mice (Mus musculus) at 80 mg/kg; cures 4 of 5; type: functional, organism-based; set-up: dose 80 mg/kg
[27] = system: Plasmodium berghei; assay: Increased mean survival time in drug-sensitive Plasmodium berghei infected mice (Mus musculus) at 320 mg/kg; cured 2 of 5; type: functional, organism-based; set-up: dose 320 mg/kg
[28] = system: Plasmodium berghei; assay: Increased mean survival time in drug-sensitive Plasmodium berghei infected mice (Mus musculus) at 160 mg/kg; cured 4 of 5; type: functional, organism-based; set-up: dose 160 mg/kg
[29] = system: Plasmodium berghei; assay: Increased mean survival time in drug-sensitive Plasmodium berghei infected mice (Mus musculus) at 40 mg/kg; cured 1 of 5; type: functional, organism-based; set-up: dose 40 mg/kg
[30] = system: Plasmodium berghei; assay: Increased mean survival time in drug-sensitive Plasmodium berghei infected mice (Mus musculus) at 320 mg/kg; cured 5 of 5; type: functional, organism-based; set-up: dose 320 mg/kg
[31] = system: Plasmodium berghei; assay: Increased mean survival time in drug-sensitive Plasmodium berghei infected mice (Mus musculus) at 640 mg/kg; cured 5 of 5; type: functional, organism-based; set-up: dose 640 mg/kg
[32] = system: Plasmodium berghei; assay: Increased mean survival time in drug-sensitive Plasmodium berghei infected mice (Mus musculus) at 80 mg/kg; cured 1 of 5; type: functional, organism-based; set-up: dose 80 mg/kg

C/C(=N\N=C(/S)N1CC2CCC(CC2)C1)c1ccccn1
Survival time [1]: 0.4 days | Survival time [2]: Cured 3 of 5 mice | Survival time [3]: Cured 1 of 5 mice | Survival time [4]: Cured 5 of 5 mice | Survival time [5]: 0.2 days | Survival time [6]: Cured 3 of 5 mice

CC(N/N=C(\S)N1CCCCCC1)c1ccccn1 (stereo not given)
Survival time [7]: 2.4 days | Survival time [8]: Toxic in 5 of 5 mice | Survival time [9]: Toxic in 5 of 5 mice

CC(N/N=C(\S)N1CCCC1)c1ccccn1 (stereo not given)
Survival time [10]: Toxic in 3 of 5 mice | Survival time [11]: Cured 1 of 5 mice | Survival time [7]: 5.2 days | Survival time [12]: 1.3 days | Survival time [9]: Toxic in 5 of 5 mice

CCOC(=O)N1CCN(/C(S)=N/NC(C)c2ccccn2)CC1 (stereo not given)
Survival time [13]: 7.2 days | Survival time [10]: Toxic in 5 of 5 mice | Survival time [14]: Toxic in 3 of 5 mice | Survival time [12]: 5.9 days | Survival time [15]: Toxic in 5 of 5 mice | Survival time [9]: Toxic in 5 of 5 mice

C/C(=N\NC(=S)N1CCCC1)c1ccccn1
Survival time [16]: Toxic in 5 of 5 mice | Survival time [17]: Toxic in 5 of 5 mice | Survival time [7]: 8.9 days

C/C(=N\NC(=S)N(C)C)c1ccccn1
Survival time [17]: Toxic in 5 of 5 mice | Survival time [7]: 0.5 days

C/C(=N\N=C(/S)N1CCC(C)CC1)c1ccccn1
Survival time [16]: Toxic in 5 of 5 mice | Survival time [2]: Cured 3 of 5 mice | Survival time [17]: Toxic in 5 of 5 mice

CC(N/N=C(\S)N(C)C1CCCCC1)c1ccccn1 (stereo not given)
Survival time [18]: Toxic in 1 of 5 mice | Survival time [19]: Toxic in 3 of 5 mice | Survival time [20]: 7.1 days | Survival time [21]: Toxic in 1 of 5 mice | Survival time [22]: Cured 3 of 5 mice | Survival time [23]: Toxic in 1 of 5 mice | Survival time [7]: 3.7 days | Survival time [12]: 2.9 days | Survival time [24]: Cured 2 of 5 mice

C/C(=N\NC(=S)N1CCCCCC1)c1ccccn1
Survival time [25]: Cured 2 of 5 mice; toxic in 3 of 5 mice | Survival time [26]: Cured 4 of 5 mice | Survival time [27]: Cured 2 of 5 mice; toxic in 2 of 5 mice | Survival time [22]: Cured 3 of 5 mice; toxic in 1 of 5 mice | Survival time [7]: 6.2 days

CC(N/N=C(\S)N1CCC(c2ccccc2)CC1)c1ccccn1 (stereo not given)
Survival time [28]: Cured 4 of 5 mice | Survival time [29]: Cured 1 of 5 mice | Survival time [9]: Toxic in 5 of 5 mice

C/C(=N\N=C(/S)N1CCC(c2ccccc2)CC1)c1ccccn1
Survival time [30]: Cured 5 of 5 mice | Survival time [31]: Cured 5 of 5 mice | Survival time [22]: Cured 3 of 5 mice | Survival time [7]: 0.4 days | Survival time [32]: Cured 1 of 5 mice

— ChEMBL document CHEMBL1122447, “2-Acetylpyridine thiosemicarbazones. 5. 1-[1-(2-Pyridyl)ethyl]-3-thiosemicarbazides as potential antimalarial agents” (1983)
